Experimental data reported in the kinase profiling compilation of Christmann-Franck et al. (2016).

What was measured:
Conditions in all cases: compound 10.0 µM
PAK2 (human) = PAK2 (human) (UniProt Q13177)
RPS6KB1 (human) = RPS6KB1 (human) (UniProt P23443)
INSR (human) = INSR (human) (UniProt P06213)
[1] = target: CAMK2A or CAMK2B or CAMK2D or CAMK2G (human) (UniProt Q13555+Q13557+Q9UQM7+Q13554)
PRKG1 (human) = PRKG1 (human) (UniProt Q13976)
MAPKAPK5 (human) = MAPKAPK5 (human) (UniProt Q8IW41)
MAP4K4 (human) = MAP4K4 (human) (UniProt O95819)
PIM2 (human) = PIM2 (human) (UniProt Q9P1W9)
MAP3K7 (human) = MAP3K7 (human) (UniProt O43318)
AKT1 (human) = AKT1 (human) (UniProt P31749)
CAMK4 (human) = CAMK4 (human) (UniProt Q16566)
ABL1 (human) = ABL1 (human) (UniProt P00519)
FGFR1 (human) = FGFR1 (human) (UniProt P11362)
MET (human) = MET (human) (UniProt P08581)
IGF1R (human) = IGF1R (human) (UniProt P08069)
DYRK1A (human) = DYRK1A (human) (UniProt Q13627)
MARK1 (human) = MARK1 (human) (UniProt Q9P0L2)
KDR (human) = KDR (human) (UniProt P35968)
SGK1 (human) = SGK1 (human) (UniProt O00141)
CHEK1 (human) = CHEK1 (human) (UniProt O14757)

RPS6KB1 (human), sequence (P23443 whole entry, looked up): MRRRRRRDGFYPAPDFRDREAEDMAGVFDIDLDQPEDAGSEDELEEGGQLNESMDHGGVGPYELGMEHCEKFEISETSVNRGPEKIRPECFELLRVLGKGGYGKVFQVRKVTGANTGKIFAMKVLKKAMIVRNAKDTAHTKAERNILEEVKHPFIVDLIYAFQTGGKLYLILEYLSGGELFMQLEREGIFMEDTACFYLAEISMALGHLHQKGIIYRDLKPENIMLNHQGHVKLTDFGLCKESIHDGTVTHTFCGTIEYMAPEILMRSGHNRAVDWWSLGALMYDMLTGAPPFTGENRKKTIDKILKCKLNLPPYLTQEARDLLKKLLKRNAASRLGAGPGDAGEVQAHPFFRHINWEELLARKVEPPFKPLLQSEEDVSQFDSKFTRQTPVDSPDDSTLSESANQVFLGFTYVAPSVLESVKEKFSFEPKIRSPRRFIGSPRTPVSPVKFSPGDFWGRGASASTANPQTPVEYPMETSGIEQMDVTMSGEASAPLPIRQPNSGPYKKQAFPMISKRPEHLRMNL
CAMK2A or CAMK2B or CAMK2D or CAMK2G (human), sequence (Q13554 whole entry, looked up): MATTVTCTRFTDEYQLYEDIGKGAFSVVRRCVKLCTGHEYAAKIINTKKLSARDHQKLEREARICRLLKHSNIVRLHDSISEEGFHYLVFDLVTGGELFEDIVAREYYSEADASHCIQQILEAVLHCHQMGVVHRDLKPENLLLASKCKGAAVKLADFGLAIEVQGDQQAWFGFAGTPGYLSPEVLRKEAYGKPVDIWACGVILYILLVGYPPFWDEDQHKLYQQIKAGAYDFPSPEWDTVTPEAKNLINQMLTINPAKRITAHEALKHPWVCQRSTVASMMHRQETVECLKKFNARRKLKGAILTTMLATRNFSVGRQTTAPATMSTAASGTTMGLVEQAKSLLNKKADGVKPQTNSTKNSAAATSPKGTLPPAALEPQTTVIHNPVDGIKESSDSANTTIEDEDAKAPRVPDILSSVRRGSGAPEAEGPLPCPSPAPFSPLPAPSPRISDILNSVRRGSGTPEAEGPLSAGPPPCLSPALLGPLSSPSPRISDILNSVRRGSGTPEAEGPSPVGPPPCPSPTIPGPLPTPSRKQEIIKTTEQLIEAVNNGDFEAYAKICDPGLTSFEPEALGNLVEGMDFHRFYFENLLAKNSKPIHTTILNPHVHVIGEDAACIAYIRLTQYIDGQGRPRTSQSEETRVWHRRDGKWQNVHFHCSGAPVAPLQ
CAMK2A or CAMK2B or CAMK2D or CAMK2G (human), sequence (Q13555 whole entry, looked up): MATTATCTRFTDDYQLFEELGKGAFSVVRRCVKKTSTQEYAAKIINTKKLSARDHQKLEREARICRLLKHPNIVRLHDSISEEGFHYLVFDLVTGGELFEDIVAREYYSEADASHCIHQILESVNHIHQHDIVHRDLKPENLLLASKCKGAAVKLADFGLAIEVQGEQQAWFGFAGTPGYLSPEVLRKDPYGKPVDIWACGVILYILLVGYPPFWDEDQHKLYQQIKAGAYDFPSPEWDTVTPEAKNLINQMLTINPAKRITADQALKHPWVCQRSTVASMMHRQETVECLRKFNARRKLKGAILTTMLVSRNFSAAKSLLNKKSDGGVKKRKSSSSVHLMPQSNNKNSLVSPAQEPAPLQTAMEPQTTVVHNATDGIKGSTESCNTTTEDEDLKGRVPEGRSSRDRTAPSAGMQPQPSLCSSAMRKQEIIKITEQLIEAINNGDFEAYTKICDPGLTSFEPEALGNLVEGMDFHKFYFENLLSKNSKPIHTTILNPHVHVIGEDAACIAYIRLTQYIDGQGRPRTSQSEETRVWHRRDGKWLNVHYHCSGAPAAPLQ
CAMK2A or CAMK2B or CAMK2D or CAMK2G (human), sequence (Q13557 whole entry, looked up): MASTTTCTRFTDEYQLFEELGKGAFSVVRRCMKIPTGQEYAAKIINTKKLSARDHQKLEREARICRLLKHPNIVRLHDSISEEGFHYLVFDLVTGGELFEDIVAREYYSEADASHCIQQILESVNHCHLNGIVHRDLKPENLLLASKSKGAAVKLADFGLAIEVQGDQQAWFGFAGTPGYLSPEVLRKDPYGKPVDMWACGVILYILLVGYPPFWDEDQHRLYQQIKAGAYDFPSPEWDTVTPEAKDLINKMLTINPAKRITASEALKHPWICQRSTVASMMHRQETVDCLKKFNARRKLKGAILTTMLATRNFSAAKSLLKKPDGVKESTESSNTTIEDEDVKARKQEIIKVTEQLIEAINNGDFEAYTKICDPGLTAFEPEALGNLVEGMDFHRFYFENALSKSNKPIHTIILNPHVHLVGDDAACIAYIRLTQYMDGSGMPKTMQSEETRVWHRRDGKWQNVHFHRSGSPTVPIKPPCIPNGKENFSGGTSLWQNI
CAMK2A or CAMK2B or CAMK2D or CAMK2G (human), sequence (Q9UQM7 whole entry, looked up): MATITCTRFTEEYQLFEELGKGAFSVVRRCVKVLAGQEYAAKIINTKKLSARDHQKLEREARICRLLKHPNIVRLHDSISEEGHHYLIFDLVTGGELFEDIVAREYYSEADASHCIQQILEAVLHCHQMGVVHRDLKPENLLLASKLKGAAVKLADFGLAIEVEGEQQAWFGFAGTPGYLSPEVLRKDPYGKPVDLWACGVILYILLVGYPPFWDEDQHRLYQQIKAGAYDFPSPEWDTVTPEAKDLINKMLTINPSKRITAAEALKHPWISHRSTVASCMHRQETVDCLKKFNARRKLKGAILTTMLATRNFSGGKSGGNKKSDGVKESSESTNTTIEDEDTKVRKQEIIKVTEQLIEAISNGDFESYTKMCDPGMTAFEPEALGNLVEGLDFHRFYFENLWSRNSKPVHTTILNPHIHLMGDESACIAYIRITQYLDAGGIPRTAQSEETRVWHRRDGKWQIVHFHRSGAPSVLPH
PRKG1 (human), sequence (Q13976 whole entry, looked up): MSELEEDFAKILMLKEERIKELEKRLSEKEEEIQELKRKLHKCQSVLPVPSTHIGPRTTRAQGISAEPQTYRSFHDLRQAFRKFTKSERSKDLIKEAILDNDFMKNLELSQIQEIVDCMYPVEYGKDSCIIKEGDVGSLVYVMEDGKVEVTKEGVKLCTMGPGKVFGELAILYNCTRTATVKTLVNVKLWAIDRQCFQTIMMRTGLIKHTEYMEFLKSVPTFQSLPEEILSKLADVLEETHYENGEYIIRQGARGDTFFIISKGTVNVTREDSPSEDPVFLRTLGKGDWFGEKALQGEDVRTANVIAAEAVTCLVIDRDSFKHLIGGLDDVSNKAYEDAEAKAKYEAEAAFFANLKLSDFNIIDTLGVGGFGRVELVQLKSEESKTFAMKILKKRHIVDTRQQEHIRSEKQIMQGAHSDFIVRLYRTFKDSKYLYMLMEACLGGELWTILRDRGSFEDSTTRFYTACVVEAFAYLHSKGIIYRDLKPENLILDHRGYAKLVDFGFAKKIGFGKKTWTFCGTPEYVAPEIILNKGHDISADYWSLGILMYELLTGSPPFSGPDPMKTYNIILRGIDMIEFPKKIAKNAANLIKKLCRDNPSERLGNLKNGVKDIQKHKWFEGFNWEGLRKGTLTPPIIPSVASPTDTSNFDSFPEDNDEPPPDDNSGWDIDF
CAMK4 (human), sequence (Q16566 whole entry, looked up): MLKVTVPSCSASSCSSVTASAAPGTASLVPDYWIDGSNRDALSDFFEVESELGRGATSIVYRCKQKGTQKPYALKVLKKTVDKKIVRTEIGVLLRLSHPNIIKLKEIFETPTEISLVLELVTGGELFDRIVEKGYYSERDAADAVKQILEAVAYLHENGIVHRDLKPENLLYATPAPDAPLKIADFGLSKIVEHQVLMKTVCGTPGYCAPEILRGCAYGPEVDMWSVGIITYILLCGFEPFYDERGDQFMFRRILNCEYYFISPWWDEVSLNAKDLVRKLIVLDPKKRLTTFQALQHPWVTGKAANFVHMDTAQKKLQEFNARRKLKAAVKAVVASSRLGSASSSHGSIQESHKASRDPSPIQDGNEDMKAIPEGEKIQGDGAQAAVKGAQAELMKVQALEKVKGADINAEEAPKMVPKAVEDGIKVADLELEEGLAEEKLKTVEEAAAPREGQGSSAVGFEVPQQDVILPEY
PIM2 (human), sequence (Q9P1W9 whole entry, looked up): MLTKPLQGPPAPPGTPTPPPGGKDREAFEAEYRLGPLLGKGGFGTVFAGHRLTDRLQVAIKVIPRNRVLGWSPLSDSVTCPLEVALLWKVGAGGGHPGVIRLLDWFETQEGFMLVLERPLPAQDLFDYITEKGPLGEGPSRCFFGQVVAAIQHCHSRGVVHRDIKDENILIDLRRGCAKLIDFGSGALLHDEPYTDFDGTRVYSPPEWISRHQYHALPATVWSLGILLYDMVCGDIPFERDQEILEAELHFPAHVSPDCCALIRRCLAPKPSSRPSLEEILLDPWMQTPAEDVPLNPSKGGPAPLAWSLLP
MAP3K7 (human), sequence (O43318 whole entry, looked up): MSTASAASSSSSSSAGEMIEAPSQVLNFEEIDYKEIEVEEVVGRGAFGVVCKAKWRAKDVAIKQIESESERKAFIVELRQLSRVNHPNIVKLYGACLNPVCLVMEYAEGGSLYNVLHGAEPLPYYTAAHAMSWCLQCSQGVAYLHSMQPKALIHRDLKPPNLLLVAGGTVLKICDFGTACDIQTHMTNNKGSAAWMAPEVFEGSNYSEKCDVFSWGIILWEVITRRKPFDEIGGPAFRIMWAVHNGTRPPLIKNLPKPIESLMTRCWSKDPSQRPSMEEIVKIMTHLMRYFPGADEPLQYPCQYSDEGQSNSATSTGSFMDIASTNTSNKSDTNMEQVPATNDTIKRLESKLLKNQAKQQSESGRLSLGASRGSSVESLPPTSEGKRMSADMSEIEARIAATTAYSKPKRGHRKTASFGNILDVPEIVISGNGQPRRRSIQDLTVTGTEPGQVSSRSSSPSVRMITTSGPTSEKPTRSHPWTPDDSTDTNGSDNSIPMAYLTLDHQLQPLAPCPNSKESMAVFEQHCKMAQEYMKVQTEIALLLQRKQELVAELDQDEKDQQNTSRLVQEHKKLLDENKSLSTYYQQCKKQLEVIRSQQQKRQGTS

| inhibition (RPS6KB1 (human)) [%] | inhibition [1] [%] | inhibition (PRKG1 (human)) [%] | inhibition (PIM2 (human)) [%] | inhibition (MAP3K7 (human)) [%] | inhibition (CAMK4 (human)) [%] | inhibition (IGF1R (human)) [%] | Compound | further results |
| --- | --- | --- | --- | --- | --- | --- | --- | --- |
| -12 | -35 | – | – | – | – | – | CC[C@@H](NC(=O)c1c[nH]c2ncc(-c3nn(C)c4cc(Cl)ccc34)nc12)C(=O)N1CC(C#N)C1 | inhibition (PAK2 (human)): -29%; inhibition (INSR (human)): -11% |
| -42 | -51 | 0 | – | – | – | – | C[C@@H](NC(=O)c1c[nH]c2ncc(-c3ncn4cc(F)cc(F)c34)nc12)C(=O)N1CC(C#N)C1 | inhibition (MAPKAPK5 (human)): -12% |
| -12 | -179 | 0 | -15 | -24 | -11 | -12 | C[C@@H](NC(=O)c1c[nH]c2ncc(-c3nn(C)c4cc(Cl)ccc34)nc12)C(=O)N1CC(C#N)C1 | inhibition (MAP4K4 (human)): -17%; inhibition (AKT1 (human)): -11%; inhibition (ABL1 (human)): -13%; inhibition (FGFR1 (human)): -11%; inhibition (MET (human)): -15%; inhibition (DYRK1A (human)): -13%; inhibition (MARK1 (human)): -11%; inhibition (KDR (human)): -18%; inhibition (SGK1 (human)): -17% |
| -14 | -53 | – | -18 | – | – | – | C[C@@H](NC(=O)c1c[nH]c2ncc(-c3cn(C)c4cc(Cl)ccc34)nc12)C(=O)N1CC(C#N)C1 | – |
| -33 | -52 | – | – | -11 | -24 | -30 | C[C@@H](NC(=O)c1c[nH]c2ncc(-c3nn(C)c4cc(Cl)cc(F)c34)nc12)C(=O)N1CC(C#N)C1 | inhibition (CHEK1 (human)): -28% |
